The values that follow come from article PMC10746708, “A small molecule iCDM-34 identified by in silico screening suppresses HBV DNA through activation of aryl hydrocarbon receptor” (Cell Death Discovery, 2023).

The nature of data set [1]: Liver microsomal stability, mouse. The conditions noted are these: mouse liver microsomes. It counts as in vitro ADME. On the procedure: (§1) Liver microsome stability studies (human, mouse, and rat) were performed at Sumika Chemical Analysis Service (Osaka, Japan) by following an established procedure. A mixture of 1 μM of substrate, 0.5 mg protein/mL of microsomes, and […] β-NADPH was incubated for 30 or 60 min and % remaining substrate was quantitatively measured by LC-MS/MS.
A general note: Liver microsomes are vesicles of endoplasmic reticulum, rich in cytochrome P450 enzymes.

The test system of the next data set is JAK/STAT signaling. Put plainly: Western blotting of phospho-STAT1, STAT2, STAT3 in HCV replicon cells. It counts as cell-based, human. The conditions noted are these: 30 μM, 24 h. On the procedure: HCV replicon cells were treated with 30 μM CDM-3008, iCDM-17, and iCDM-34 for 1 day. The cells were lyzed with 1 x SDS sample buffer containing PhosStop, Complete EDTA free, and 1 mM EDTA. After sonication for 30 s, the lysates were centrifuged at 12,000g for 10 min at 4 °C, and then the supernatants were collected. After reducing the 20 μg of supernatants with 50 mM DTT at 98 °C for 2 min, the samples were separated by SDS-PAGE. STAT1, STAT2, STAT3, pSTAT1, pSTAT2, and pSTAT3 were detected by Western blotting using anti-STAT1 (9175, 1/1000), STAT2 (72604, 1/1000), STAT3 (12640, 1/1000), pSTAT1 (Y701) (7649, 1/1000), pSTAT2 (Y690) (88410, 1/1000), and pSTAT3 (Y705) (9145, 1/1000) antibodies (Cell signaling technology, Massachusetts, USA).
A general note: A western blot detects proteins with antibodies after separation by electrophoresis.

The subject of another data set is HBV genotype C. Put plainly: Anti-HBV activity in HBV-infected PXB cells (HBV DNA by qPCR). It counts as cell-based. Particulars: Hepatitis B virus, 168 h; HBV genotype C-infected PXB cells, 0.03–100 µM for 7 days, qPCR; read-out: half maximal inhibitory concentration, cellular HBV DNA. On the procedure: PXB cells (primary cultured human hepatocytes) were purchased from PhoenixBio (Higashi-Hiroshima, Japan) and cultured on collagen type I-coated 96- or 24-well plates in hepatocyte clonal growth medium at 37 °C and 5 % CO2 as previously described. RealTime-Glo MT Cell Viability Assay (Promega) and XTT assay were performed according to a previously established protocol.
PXB cells were plated on 96-well plate and infected with three genome equivalents per cell of HBV C_AT [33], and the medium was changed every 3 or 4 days. […] After treatment with these compounds, cellular DNA, medium DNA, and total RNA were automatically purified as per our previously established protocol. RNA purification of total RNA from cultured cells in the 24-well plate was performed using the RNeasy Mini Kit (Qiagen, Germantown, MD, USA) according to the manufacturer’s instructions.
HBV DNA copy numbers were determined using TaqMan Gene Expression Master Mix (Thermo Fisher Scientific) or Probe qPCR Mix (Takara Bio), specific primers, and probes in a qPCR system (Light Cycler 96 System, Roche, Basel, Switzerland or CFX96 Touch Real-Time PCR Detection System, Bio-Rad Laboratories, Hercules, CA, USA). The specific primers and probe used for detection of HBV DNA were as follows: forward primer: 5′-[…]-3′, reverse primer: 5′-[…]-3′, and probe: 5′-[FAM] […][TAM]-3′.
In general terms: Quantitative PCR measures a nucleic acid by following its amplification.

A short description of data set [2]: Liver microsomal stability, rat. It counts as in vitro ADME. Particulars: rat liver microsomes. On the procedure: as §1
Another data set concerns phospho-SAMHD1. Put plainly: Western blotting of phospho-SAMHD1 in HepG2-NTCP-C4 cells. It counts as cell-based, human. Particulars: 30 μM, 1 day. On the procedure:
HepG2-NTCP-C4 cells were treated with 30 μM iCDM-17 and iCDM-34 for 1 day. The cells were lyzed with 20 mM TrisHCl pH 7.5 containing 100 mM NaCl, 10 mM EDTA, 1% TritonX-100, 1% Sodium deoxycholate, PhosSTOP (Roche), Complete EDTA free. The lysates were sonicated 30 s and mixed for 1 h with rotation at 4 °C. The lysates were centrifuged at 15,000 rpm for 10 min at 4 °C. The supernatants were analyzed by Western blotting using anti-phospho-SAMHD1 (Thr592) (Cell signaling technology, 89930, 1/1000), anti-SAMHD1 (Cell signaling technology, 49158, 1/1000), and β−actin (Santa Cruz, 1/1000).

Data set [3] can be described thus: Liver microsomal stability, human. In kind it is in vitro ADME. The conditions noted are these: human liver microsomes. The protocol: as §1
Where [4] appears, read: 1 μM substrate, 0.5 mg protein/mL, 30 min.
[5] abbreviates: 1 μM substrate, 0.5 mg protein/mL, 60 min.

What is called half-life is the time needed for the level to fall by half in the phase considered. Read a low half-life as rapid decline. In general, amount remaining refers to what is left of the initial amount, in per cent. Turning to `COc1ccc(CNC(=O)c2nc(-c3ccc4c(c3)OCO4)no2)cc1OC` [iCDM-17], the half-life at 1 μM in data set [1] was determined as 34.8 min; in data set [2] it was 26.7 min; in data set [3], 48.6 min. Moreover, the values for the fraction remaining at 0.5 h, 1 μM in data set [1] (setting [4]), in data set [2] (setting [4]) and in data set [3] (setting [4]) were 45.8 ± 0.6%, 32 ± 0.2% and 61.4 ± 0.9%, respectively. The fraction remaining at 1 h, 1 μM in data set [1] (setting [5]) is 22.6%; in data set [2] (setting [5]), 11.6 ± 0.2%; in data set [3] (setting [5]) it was 42.3 ± 0.1%. Besides, in the data set on JAK/STAT signaling, the “phosphorylation of STAT1, STAT2, and STAT3” value is recorded as “not induced”. Also, the IC50 in the data set on HBV genotype C stood at 56.6 µM. Further, the phospho-SAMHD1 levels result in the data set with phospho-SAMHD1 is listed as “lower than pre-treatment levels”.
